Here are results for eleven compounds from ChEMBL document CHEMBL1201862, “PubChem BioAssay data set” (2004).

Among the test systems are A498; Hs-578T; SF-539; COLO 205; NCI-H23; OVCAR-5; SK-MEL-5; LOX IMVI; T47D; 786-0; MOLT-4; SNB-19; EKVX; NCI-H460; HCT-116; OVCAR-3; RXF 393; NCI-H226; K562.
Holding throughout (test): NCI anticancer screen, dose series, 48 h

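Five concentrations, 48 hours, 96-well plates. GI50 is the concentration that inhibits growth by half.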 Activity calls are given as the source filed them. Rule as the data show it: active = GI50 up to about 1.1 µM and inactive = higher.

In the case of `CN(C)c1ncnc2c1ncn2CCn1cnc2c(N(C)C)ncnc21`, the GI50 with A498, with Hs-578T, with SF-539, with COLO 205, in the test with NCI-H23 and in the test on OVCAR-5 was > 100 µM (inactive) in each case. The GI50 in the test on SK-MEL-5 was > 100 µM (inactive); with LOX IMVI it was > 100 µM (inactive); in the test with T47D, > 100 µM (inactive); in the test on 786-0, > 100 µM (inactive); in the test with MOLT-4, < 0.01 µM (active); with SNB-19 it was > 100 µM (inactive). The GI50 with EKVX, with NCI-H460, in the test with HCT-116, in the test with OVCAR-3 and in the test on RXF 393 was > 100 µM (inactive) each time.

As to `COc1cccc(CCn2c(N)c(-c3ccccc3)c3ccc([N+](=O)[O-])cc3c2=O)c1`, the GI50 was 1.82 µM (inactive) in the test with A498; 1.85 µM (inactive) with Hs-578T; 2.51 µM (inactive) in the test on SF-539; 3.05 µM (inactive) in the test with NCI-H226; 2.16 µM (inactive) in the test with COLO 205; 3.16 µM (inactive) in the test with NCI-H23. The GI50 was 14.3 µM (inactive) in the test with OVCAR-5; 5.93 µM (inactive) with SK-MEL-5; 2.43 µM (inactive) with LOX IMVI; 1.02 µM (active) in the test with K562; 2.05 µM (inactive) in the test on T47D; 6.25 µM (inactive) in the test with 786-0. Further, the GI50 was 6.7 µM (inactive) in the test on MOLT-4; 16 µM (inactive) in the test with SNB-19; 12.3 µM (inactive) in the test on EKVX; 13.6 µM (inactive) in the test on NCI-H460; 3.3 µM (inactive) in the test on HCT-116; 2.58 µM (inactive) in the test with OVCAR-3.

On to `C=CCSc1nn(CC=C)cc2ncnc1-2`, for which the GI50 in the test on A498, with Hs-578T, in the test on SF-539, in the test on NCI-H226, in the test on COLO 205 and in the test with NCI-H23 was > 100 µM (inactive) throughout. Further, the GI50 in the test on OVCAR-5, in the test with SK-MEL-5, with K562, with T47D, with 786-0 and in the test with MOLT-4 was > 100 µM (inactive) each time. The GI50 in the test with SNB-19, in the test on EKVX, in the test with NCI-H460, in the test on HCT-116, in the test on OVCAR-3 and in the test with RXF 393 was > 100 µM (inactive) throughout.

Take `O=C(/C=C\c1ccc([N+](=O)[O-])cc1)c1ccccc(=O)c1O`: the GI50 is 2.84 µM (inactive) in the test with A498; 3.88 µM (inactive) in the test with Hs-578T; 1.65 µM (inactive) in the test with NCI-H226; 0.397 µM (active) in the test with COLO 205; 2.33 µM (inactive) in the test on NCI-H23; 2.55 µM (inactive) with OVCAR-5. For the same compound, the GI50 was 0.558 µM (active) in the test on SK-MEL-5; 0.449 µM (active) in the test with LOX IMVI; 0.92 µM (active) in the test on K562; 2.67 µM (inactive) with T47D; 0.769 µM (active) with 786-0; 0.721 µM (active) in the test on MOLT-4. The GI50 is 4.65 µM (inactive) in the test with SNB-19; 1.81 µM (inactive) in the test on EKVX; 0.518 µM (active) in the test with NCI-H460; 0.659 µM (active) in the test with HCT-116; 2.49 µM (inactive) in the test with OVCAR-3.

On to `O=C(Nc1ccccc1)N(C1=NCC(CI)S1)c1ccc(F)c(F)c1` (centres undefined), for which the GI50 in the test with A498 is 24.9 µM (inactive); in the test on Hs-578T, 64 µM (inactive); in the test on SF-539, 33.2 µM (inactive); in the test with COLO 205, 56.1 µM (inactive); in the test with NCI-H23, 29.2 µM (inactive); in the test on OVCAR-5 it was > 100 µM (inactive). Also, the GI50 was 17.3 µM (inactive) in the test with SK-MEL-5; 15.2 µM (inactive) in the test with LOX IMVI; 27 µM (inactive) with K562; 18.3 µM (inactive) in the test with T47D; 43.2 µM (inactive) in the test with 786-0; 19.5 µM (inactive) in the test on MOLT-4. Further, the GI50 was > 100 µM (inactive) with SNB-19; > 100 µM (inactive) in the test with EKVX; 35.2 µM (inactive) with NCI-H460; 29.1 µM (inactive) in the test with HCT-116; 28.3 µM (inactive) in the test with OVCAR-3.

Regarding `C[C@@H]1OC(=O)C[C@H]2CC(=O)N(CCC3CN(C(=O)c4ccccc4)c4ccccc43)C[C@@H]21` (some centres undefined), the GI50 in the test with A498, with Hs-578T, in the test with COLO 205, with NCI-H23, in the test on OVCAR-5 and with SK-MEL-5 was > 100 µM (inactive) in each case. Also, the GI50 with K562, with T47D, in the test with 786-0, in the test on MOLT-4, in the test on SNB-19 and with EKVX was > 100 µM (inactive) throughout. The GI50 in the test with NCI-H460, in the test on HCT-116, in the test with OVCAR-3 and in the test with RXF 393 was > 100 µM (inactive) each time.

On to `CN(C)CCNC(=O)c1cccc(N(C)C(=O)c2ccccc2)c1[N+](=O)[O-]`, for which the GI50 with A498 was > 100 µM (inactive); with Hs-578T, > 100 µM (inactive); in the test on SF-539 it was > 100 µM (inactive); in the test with NCI-H226, > 100 µM (inactive); in the test with COLO 205, > 10 µM (inactive); in the test on NCI-H23, > 100 µM (inactive). The GI50 with OVCAR-5, with SK-MEL-5, in the test with K562, with T47D, with 786-0 and in the test with MOLT-4 was > 100 µM (inactive) in each case. The GI50 in the test on SNB-19, with NCI-H460, in the test on HCT-116 and in the test on OVCAR-3 was > 100 µM (inactive) throughout.

Turning to `CN(CCCNCc1ccccn1)Cc1ccccc1O`, the GI50 is > 100 µM (inactive) in the test with A498; > 100 µM (inactive) in the test on Hs-578T; 15.4 µM (inactive) in the test with NCI-H226; 29 µM (inactive) in the test with COLO 205; 14.4 µM (inactive) with NCI-H23; 32 µM (inactive) with OVCAR-5. In addition, the GI50 with SK-MEL-5 was 21 µM (inactive); with LOX IMVI it was 23.1 µM (inactive); with K562, 39.8 µM (inactive); in the test on T47D, 34 µM (inactive); with 786-0 it was 52.7 µM (inactive); with MOLT-4, 13.7 µM (inactive). Besides, the GI50 was 21.6 µM (inactive) in the test with SNB-19; 33.4 µM (inactive) in the test with EKVX; 7.19 µM (inactive) with NCI-H460; 60.4 µM (inactive) in the test on HCT-116; 24.9 µM (inactive) with OVCAR-3; 16.7 µM (inactive) in the test with RXF 393.

In the case of `O=C(c1cccc(OCc2ccccc2)c1OCc1ccccc1)N1CCSC1=S`, the GI50 in the test on A498 is 16.5 µM (inactive); with Hs-578T, 2.29 µM (inactive); in the test on SF-539, 33.3 µM (inactive); in the test with NCI-H226 it was 23.8 µM (inactive); in the test with COLO 205 it was 12 µM (inactive); in the test with NCI-H23, 19.1 µM (inactive). Moreover, the GI50 was 71.3 µM (inactive) in the test with OVCAR-5; 14 µM (inactive) in the test on SK-MEL-5; 34.2 µM (inactive) with LOX IMVI; 9.35 µM (inactive) in the test on K562; 5.66 µM (inactive) in the test with T47D; 42.8 µM (inactive) in the test on 786-0. For the same compound, the GI50 was 12.6 µM (inactive) with MOLT-4; > 46.6 µM (inactive) in the test on SNB-19; 37.8 µM (inactive) in the test on EKVX; 28 µM (inactive) in the test with NCI-H460; 21.4 µM (inactive) in the test with HCT-116; 21.1 µM (inactive) in the test on OVCAR-3.

Take `CC(C)(C)OC(=O)NC1CCCC1C(O)(C1=CCCC1)C1=CCCC1` (centres undefined): the GI50 with A498, in the test on Hs-578T, with NCI-H226, in the test on COLO 205, in the test on NCI-H23 and in the test with OVCAR-5 was > 100 µM (inactive) in each case. In addition, the GI50 in the test on SK-MEL-5 was > 100 µM (inactive); in the test with LOX IMVI it was > 100 µM (inactive); in the test on T47D it was 25.6 µM (inactive); in the test with 786-0, > 100 µM (inactive); in the test on MOLT-4, > 100 µM (inactive); with SNB-19, > 100 µM (inactive). In addition, the GI50 in the test with NCI-H460, in the test on HCT-116, with OVCAR-3 and with RXF 393 was > 100 µM (inactive) in each case.

Consider `COC1=CC2(C=CC1=O)CCNC1=C2C(=O)c2nc[nH]c2C1=O` (centres undefined), for which the GI50 in the test on A498, in the test with Hs-578T, in the test on SF-539, in the test with COLO 205, in the test on NCI-H23 and in the test with OVCAR-5 was > 100 µM (inactive) in each case. The GI50 with SK-MEL-5, with LOX IMVI, in the test with K562, with T47D, in the test on 786-0 and in the test with MOLT-4 was > 100 µM (inactive) throughout. For the same compound, the GI50 in the test on SNB-19 was > 100 µM (inactive); with EKVX, > 100 µM (inactive); in the test on NCI-H460 it was > 100 µM (inactive); with HCT-116, > 100 µM (inactive); with OVCAR-3 it was 41.8 µM (inactive); in the test on RXF 393 it was > 100 µM (inactive).
